Test results reported in PubChem BioAssay (NCI).
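Each compound was tested at five concentrations against cells in 96-well plates for 48 hours. At the GI50, growth is halved. TGI: total growth inhibition.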

Experiments:
Experiment in all cases: NCI tumour cell line growth inhibition, 48 h
SN12C renal = tested on: SN12C renal
HS 578T breast = tested on: HS 578T breast
SF-295 CNS = tested on: SF-295 CNS
MDA-MB-231 breast = tested on: MDA-MB-231 breast
SK-MEL-5 melanoma = tested on: SK-MEL-5 melanoma
SF-539 CNS = tested on: SF-539 CNS
TK-10 renal = tested on: TK-10 renal
SNB-75 CNS = tested on: SNB-75 CNS
OVCAR-5 ovarian = tested on: OVCAR-5 ovarian
786-0 renal = tested on: 786-0 renal
K-562 leukemia = tested on: K-562 leukemia
U251 CNS = tested on: U251 CNS
RPMI-8226 leukemia = tested on: RPMI-8226 leukemia
CAKI-1 renal = tested on: CAKI-1 renal
NCI-H226 lung = tested on: NCI-H226 lung
SK-MEL-28 melanoma = tested on: SK-MEL-28 melanoma
NCI-H23 lung = tested on: NCI-H23 lung
OVCAR-8 ovarian = tested on: OVCAR-8 ovarian
PC-3 prostate = tested on: PC-3 prostate
SF-268 CNS = tested on: SF-268 CNS
SK-OV-3 ovarian = tested on: SK-OV-3 ovarian
HOP-92 NSCLC = tested on: HOP-92 NSCLC
ACHN renal = tested on: ACHN renal
COLO 205 colon = tested on: COLO 205 colon
T-47D breast = tested on: T-47D breast
KM12 colon = tested on: KM12 colon
A549 NSCLC = tested on: A549 NSCLC
M14 melanoma = tested on: M14 melanoma
MOLT-4 leukemia = tested on: MOLT-4 leukemia
EKVX NSCLC = tested on: EKVX NSCLC
UACC-62 melanoma = tested on: UACC-62 melanoma
DU-145 prostate = tested on: DU-145 prostate
MCF7 breast = tested on: MCF7 breast
SK-MEL-2 melanoma = tested on: SK-MEL-2 melanoma
OVCAR-4 ovarian = tested on: OVCAR-4 ovarian
RXF 393 renal = tested on: RXF 393 renal
HCT-116 colon = tested on: HCT-116 colon
CCRF-CEM leukemia = tested on: CCRF-CEM leukemia
HL-60(TB) leukemia = tested on: HL-60(TB) leukemia
MDA-MB-435 = tested on: MDA-MB-435
UACC-257 melanoma = tested on: UACC-257 melanoma
HCT-15 colon = tested on: HCT-15 colon
SNB-19 CNS = tested on: SNB-19 CNS
HCC-2998 colon = tested on: HCC-2998 colon
SW-620 colon = tested on: SW-620 colon
NCI/ADR-RES ovarian = tested on: NCI/ADR-RES ovarian
HOP-62 NSCLC = tested on: HOP-62 NSCLC
LOX IMVI melanoma = tested on: LOX IMVI melanoma
UO-31 renal = tested on: UO-31 renal
SR leukemia = tested on: SR leukemia
HT29 colon = tested on: HT29 colon
OVCAR-3 ovarian = tested on: OVCAR-3 ovarian
IGROV1 ovarian = tested on: IGROV1 ovarian
A498 renal = tested on: A498 renal
NCI-H522 lung = tested on: NCI-H522 lung
NCI-H460 lung = tested on: NCI-H460 lung
MALME-3M melanoma = tested on: MALME-3M melanoma

## C=C(C)[C@@H]1CC[C@]2(C(=O)OCCCC[P+](c3ccccc3)(c3ccccc3)c3ccccc3)CC[C@]3(C)[C@H](CC[C@@H]4[C@@]5(C)CC[C@H](OC(=O)C(Cl)Cl)C(C)(C)[C@@H]5CC[C@]43C)[C@@H]12
SN12C renal
  GI50: 270 nM
  TGI: 1580 nM

## CC/C(Cc1ccccc1)=C(/c1ccc(O)cc1)c1ccc(OCCN2CCCC2)cc1
HS 578T breast
  GI50: 1860 nM
  TGI: 5830 nM
SF-295 CNS
  GI50: 1810 nM
  TGI: 3460 nM
MDA-MB-231 breast
  GI50: 2100 nM
  TGI: 4050 nM
SK-MEL-5 melanoma
  GI50: 1700 nM
  TGI: 3080 nM
SF-539 CNS
  GI50: 1670 nM
  TGI: 3210 nM
TK-10 renal
  GI50: 1750 nM
  TGI: 3340 nM
SNB-75 CNS
  GI50: 1310 nM
  TGI: 2980 nM
OVCAR-5 ovarian
  GI50: 1860 nM
  TGI: 3930 nM
786-0 renal
  GI50: 1720 nM
  TGI: 3220 nM
K-562 leukemia
  GI50: 1200 nM
  TGI: 3410 nM
U251 CNS
  GI50: 1690 nM
  TGI: 3190 nM
RPMI-8226 leukemia
  GI50: 2100 nM
  TGI: 4670 nM
CAKI-1 renal
  GI50: 1650 nM
  TGI: 3520 nM
NCI-H226 lung
  GI50: 1770 nM
  TGI: 3580 nM
SK-MEL-28 melanoma
  GI50: 1720 nM
  TGI: 3420 nM
NCI-H23 lung
  GI50: 1720 nM
  TGI: 3530 nM
OVCAR-8 ovarian
  GI50: 2390 nM
  TGI: 5390 nM
PC-3 prostate
  GI50: 1790 nM
  TGI: 3250 nM
SF-268 CNS
  GI50: 1610 nM
  TGI: 3350 nM
SK-OV-3 ovarian
  GI50: 1740 nM
  TGI: 3320 nM
HOP-92 NSCLC
  GI50: 1610 nM
  TGI: 3260 nM
ACHN renal
  GI50: 1830 nM
  TGI: 3390 nM
COLO 205 colon
  GI50: 1760 nM
  TGI: 3390 nM
T-47D breast
  GI50: 1260 nM
  TGI: 3320 nM
KM12 colon
  GI50: 1940 nM
  TGI: 3740 nM
A549 NSCLC
  GI50: 2050 nM
  TGI: 3820 nM
M14 melanoma
  GI50: 1800 nM
  TGI: 3640 nM
MOLT-4 leukemia
  GI50: 1570 nM
  TGI: 3630 nM
EKVX NSCLC
  GI50: 1440 nM
  TGI: 2890 nM
UACC-62 melanoma
  GI50: 2030 nM
  TGI: 4120 nM
DU-145 prostate
  GI50: 1940 nM
  TGI: 3880 nM
MCF7 breast
  GI50: 21.1 nM
  TGI: 2220 nM
SK-MEL-2 melanoma
  GI50: 2040 nM
  TGI: 3840 nM
OVCAR-4 ovarian
  GI50: 2080 nM
  TGI: 5180 nM
RXF 393 renal
  GI50: 1560 nM
  TGI: 3130 nM
HCT-116 colon
  GI50: 1830 nM
  TGI: 3300 nM
CCRF-CEM leukemia
  GI50: 1830 nM
  TGI: 4160 nM
HL-60(TB) leukemia
  GI50: 1900 nM
  TGI: 3840 nM
MDA-MB-435
  GI50: 1670 nM
  TGI: 3230 nM
UACC-257 melanoma
  GI50: 2140 nM
  TGI: 3890 nM
HCT-15 colon
  GI50: 1510 nM
  TGI: 3080 nM
SNB-19 CNS
  GI50: 1970 nM
  TGI: 3930 nM
HCC-2998 colon
  GI50: 1540 nM
  TGI: 2980 nM
SW-620 colon
  GI50: 1840 nM
  TGI: 3630 nM
NCI/ADR-RES ovarian
  GI50: 2100 nM
  TGI: 5440 nM
HOP-62 NSCLC
  GI50: 1900 nM
  TGI: 3580 nM
LOX IMVI melanoma
  GI50: 1620 nM
  TGI: 3050 nM
UO-31 renal
  GI50: 1430 nM
  TGI: 2950 nM
SR leukemia
  GI50: 1350 nM
  TGI: 3200 nM
HT29 colon
  GI50: 1720 nM
  TGI: 3780 nM
OVCAR-3 ovarian
  GI50: 1820 nM
  TGI: 3460 nM
IGROV1 ovarian
  GI50: 1950 nM
  TGI: 4500 nM
A498 renal
  GI50: 1270 nM
  TGI: 2720 nM
NCI-H522 lung
  GI50: 1890 nM
  TGI: 3670 nM
SN12C renal
  GI50: 1880 nM
  TGI: 3880 nM
NCI-H460 lung
  GI50: 1720 nM
  TGI: 3480 nM

## NC(=O)c1ncn(CC2(CO)CCC2)n1
SNB-75 CNS
  GI50: 21600 nM

## COc1cc(Nc2ncnc(Nc3ccc4c(n3)NC(=O)C(C)(C)O4)n2)cc(OC)c1OC
HS 578T breast
  GI50: 149 nM
  TGI: 660 nM
SF-295 CNS
  GI50: 754 nM
  TGI: > 100000 nM
MDA-MB-231 breast
  GI50: 1330 nM
  TGI: > 100000 nM
SK-MEL-5 melanoma
  GI50: > 100000 nM
  TGI: > 100000 nM
SF-539 CNS
  GI50: 230 nM
  TGI: 673 nM
TK-10 renal
  GI50: 457 nM
  TGI: > 100000 nM
SNB-75 CNS
  GI50: 169 nM
  TGI: 724 nM
OVCAR-5 ovarian
  GI50: 602 nM
  TGI: > 100000 nM
786-0 renal
  GI50: 492 nM
  TGI: > 22600 nM
K-562 leukemia
  GI50: 3550 nM
  TGI: > 100000 nM
U251 CNS
  GI50: 1500 nM
  TGI: > 100000 nM
CAKI-1 renal
  GI50: 319 nM
  TGI: > 100000 nM
NCI-H226 lung
  GI50: 297 nM
  TGI: > 100000 nM
SK-MEL-28 melanoma
  GI50: > 23900 nM
  TGI: > 100000 nM
NCI-H23 lung
  GI50: 2590 nM
  TGI: > 100000 nM
OVCAR-8 ovarian
  GI50: 10900 nM
  TGI: > 100000 nM
PC-3 prostate
  GI50: 1460 nM
  TGI: > 100000 nM
SF-268 CNS
  GI50: 544 nM
  TGI: > 100000 nM
SK-OV-3 ovarian
  GI50: 929 nM
HOP-92 NSCLC
  GI50: 243 nM
  TGI: 1710 nM
ACHN renal
  GI50: 160 nM
  TGI: 23700 nM
COLO 205 colon
  GI50: 829 nM
  TGI: > 100000 nM
T-47D breast
  GI50: 1180 nM
  TGI: > 100000 nM
KM12 colon
  GI50: 395 nM
  TGI: > 100000 nM
A549 NSCLC
  GI50: 1250 nM
  TGI: > 100000 nM
M14 melanoma
  GI50: 5150 nM
  TGI: > 100000 nM
MOLT-4 leukemia
  GI50: 5240 nM
  TGI: > 100000 nM
UACC-62 melanoma
  GI50: 2360 nM
  TGI: > 100000 nM
DU-145 prostate
  GI50: 2030 nM
  TGI: > 100000 nM
MCF7 breast
  GI50: 1320 nM
  TGI: > 100000 nM
SK-MEL-2 melanoma
  GI50: > 100000 nM
  TGI: > 100000 nM
MALME-3M melanoma
  GI50: 8690 nM
  TGI: > 100000 nM
OVCAR-4 ovarian
  TGI: > 100000 nM
RXF 393 renal
  GI50: 148 nM
  TGI: 622 nM
HCT-116 colon
  GI50: 3950 nM
  TGI: > 100000 nM
CCRF-CEM leukemia
  GI50: 3730 nM
  TGI: > 100000 nM
HL-60(TB) leukemia
  GI50: 4520 nM
  TGI: > 100000 nM
MDA-MB-435
  GI50: 2090 nM
  TGI: > 100000 nM
UACC-257 melanoma
  GI50: 3260 nM
  TGI: > 100000 nM
HCT-15 colon
  GI50: 1700 nM
  TGI: > 100000 nM
SNB-19 CNS
  GI50: 9780 nM
  TGI: > 100000 nM
HCC-2998 colon
  GI50: > 100000 nM
  TGI: > 100000 nM
SW-620 colon
  GI50: 2730 nM
  TGI: > 100000 nM
NCI/ADR-RES ovarian
  TGI: > 100000 nM
HOP-62 NSCLC
  GI50: 555 nM
  TGI: > 66500 nM
LOX IMVI melanoma
  GI50: 633 nM
  TGI: > 100000 nM
UO-31 renal
  GI50: 329 nM
  TGI: > 100000 nM
SR leukemia
  GI50: 2240 nM
  TGI: > 100000 nM
HT29 colon
  GI50: 803 nM
  TGI: > 100000 nM
OVCAR-3 ovarian
  GI50: 3460 nM
  TGI: > 100000 nM
IGROV1 ovarian
  GI50: 247 nM
  TGI: 1720 nM
A498 renal
  GI50: 31 nM
  TGI: 290 nM
NCI-H522 lung
  GI50: 625 nM
  TGI: 11200 nM
SN12C renal
  GI50: 411 nM
  TGI: > 100000 nM
NCI-H460 lung
  GI50: 3200 nM
  TGI: > 100000 nM
